PMC6572618, “Anti-Trypanosomal and Antimalarial Properties of Tetralone Derivatives and Structurally Related Benzocycloalkanones” (Medicina, 2019)

Legend:
Type in all cases: cell-based
[1] = test system: 427 Trypanosoma brucei brucei trypomastigotes; assay: In vitro anti-trypanosomal assay (resazurin); details: Trypanosoma brucei, 48 h; for viability at 20 µM: 20 µM compound, % parasite viability relative to untreated control, read-out: % Viability at 20 µM (SD) T.b. brucei; for IC50: three-fold serial dilutions from 100 µM, read-out: IC50 (µM) T. b. brucei
Procedure: The activity of the compounds against 427 Trypanosoma brucei brucei trypomastigotes was determined as previously described. Briefly, parasites were incubated in 96-well plates with 20 µM or three-fold serial dilutions (100 µM starting concentration) of test compounds in Iscove’s modified Dulbecco’s medium (IMDM) (Lonza, Basel, Switzerland) supplemented with 10% fetal calf serum, HMI-9 supplement, hypoxanthine, and penicillin/streptomycin at 37 °C in a 5% CO2 incubator. After 48 h, 20 µL of resazurin reagent (0.135 mg/mL resazurin in phosphate-buffered saline) was added to each well and the fluorescence (Ex560/Em590) read after 2–4 h in a Spectramax M3 plate reader (Molecular Devices, San Jose, CA, USA). The fluorescence readings were used to calculate % parasite viability relative to the readings obtained from the wells containing untreated control parasite cultures. The IC50 values were determined by plotting % viability vs. log(compound) and performing a non-linear regression using a GraphPad Prism (v. 5.02) (San Diego, CA, USA).
(§1) Thirty-five tetralone derivatives (see Figure 2) and six related benzocycloalkanones (see Figure 3) were evaluated in vitro against T. b. brucei for antitrypanosomal activity through the resazurin assay protocol. The compounds were also evaluated against the chloroquine-sensitive strain (3D7) of P. falciparum for antimalarial activity using pLDH assay and against the HeLa cell line for cytotoxicity evaluation using the resazurin assay protocol.

[2] = In vitro cytotoxicity assay (resazurin); details: human, HeLa cells; 20 µM compound, 24 h, % cell viability relative to untreated control; read-out: % Viability at 20 µM (SD) HeLa Cell
Procedure: As previously described, HeLa cells (Cellonex, Johannesburg, South Africa) were seeded in 96-well plates at a density of 2 × 10^4 cells/well in Dulbecco’s modified Eagle’s medium (DMEM) (Lonza, Basel, Switzerland) supplemented with 10% fetal calf serum and antibiotics (penicillin/streptomycin/amphotericin B) and incubated overnight at 37 °C in a 5% CO2 incubator. Compounds were added to the cells at a final concentration of 20 µM, and incubation continued for 24 h. The cell viability in the wells was assessed by adding 20 µL of resazurin reagent (0.135 mg/mL resazurin in phosphate-buffered saline) and reading the fluorescence (Ex560/Em590) after an additional 2–4 h incubation. The fluorescence readings were converted to % cell viability relative to the average readings obtained from the untreated control wells.
as §1

[3] = test system: chloroquine sensitive strain of P. falciparum (3D7); assay: In vitro antiplasmodial assay (parasite lactate dehydrogenase, pLDH); details: Plasmodium falciparum, 3D7, 48 h, 20 µM compound, 48 h, P. falciparum 3D7, % parasite viability relative to untreated parasites; read-out: % Viability at 20 µM (SD) 3D7
Procedure: An antimalarial evaluation was performed against the chloroquine sensitive strain of P. falciparum (3D7) using the parasite lactate dehydrogenase (pLDH) assay as previously reported. Parasites were seeded at 2% parasitemia and 1% hematocrit in 96 well plates and were incubated with 20 µM of the test compounds for 48 h in culture medium consisting of Rosell Park Memorial Institute (RPMI 1640; Lonza, Basel, Switzerland) containing 25 mM 4-(2-hydroxyethyl)-1-piperazineethanesulfonic acid (HEPES), supplemented with 0.5% (w/v) Albumax II, 22 mM glucose, 0.65 mM hypoxanthine, 0.05mg/mL gentamicin, and 1% (v/v) human erythrocytes, at 37 °C under an atmosphere of 5% CO2, 5% O2, and 90% N2. The parasite lactate dehydrogenase activity in the wells was determined using the colorimetric assay method of Makler et al.. The absorbance readings were converted to % parasite viability relative to the wells containing untreated parasites.
as §1

COc1ccc2c(c1)C(=O)/C(=C/c1ccsc1)CC2 [Compound 35]
viability at 20 µM [1]: 22%
IC50 [1]: 2.6 µM
viability at 24 h, 20 µM [2]: 122%
viability at 20 µM [3]: 86%

COc1ccc2c(c1)C(=O)/C(=C/c1ccccc1)CC2 [Compound 10]
IC50 [1]: 1.04 µM
viability at 24 h, 20 µM [2]: 65%
viability at 20 µM [3]: 113%

O=C1/C(=C/c2ccc(Br)cc2)CCc2ccc(O)cc21 [Compound 16]
viability at 20 µM [1]: 0.1%
IC50 [1]: 1.24 µM
viability at 24 h, 20 µM [2]: 62%
viability at 20 µM [3]: 43%

N#Cc1cccc(/C=C2\CCc3ccccc3C2=O)c1 [Compound 1]
viability at 20 µM [1]: 0.06%
IC50 [1]: 2.3 µM
viability at 24 h, 20 µM [2]: 87%
viability at 20 µM [3]: 113%

O=C1/C(=C/c2cccc(F)c2)CCc2ccccc21 [Compound 6]
viability at 20 µM [1]: 0.5%
IC50 [1]: 3.1 µM
viability at 24 h, 20 µM [2]: 121%
viability at 20 µM [3]: 131%
